Results as given in patent US20220091133A1, “METHODS AND ASSAYS FOR IMMUNE PHENOTYPING” (Washington University, priority 2020, published 2022).
Where “and” joins values, the source holds several entries; their conditions need not be identical. Equal entries are not always repeated. Starred links: 1 amine or outer side, 2 acyl side, 3 side chain; linkers in the order of their positions; H or OH if unused. Positions of bridges follow the written chain, without caps; N, C: chain ends. Non-standard residues stand in square brackets, D forms with d. Residues, ends and D or L forms follow the SMILES beside them. *: point of attachment. hTyr(3S-OH,4S-OH,3'-OSO3H) = N[C@H](C(=O)O)[C@H](O)[C@@H](O)c1ccc(O)c(OS(=O)(=O)O)c1; Orn(4R-OH,5R-OH) = O=C([C@H](C[C@@H](O)[C@@H](O)N[*:3])N[*:1])[*:2]; Pro(3S-OH,4S-Me) = C[C@H]1CN[C@H](C(=O)O)[C@H]1O; X1 = CCCCCOc1ccc(-c2cc(-c3ccc(C(=O)*)cc3)no2)cc1; Gln(3R-OH) = NC(=O)C[C@@H](O)[C@H](N)C(=O)O; Hyp = O=C(O)[C@@H]1C[C@@H](O)CN1

Experiments:
[1] = tested on: Trichosporon asahii and Saksenaea species; assay: Tissue, wound, blood and bone cultures of the fungal wound sepsis patient; assay type: in vivo, human; details: posaconazole, amphotericin B and micafungin together, before IL-7
Source text: They were aggressively treated with daily or alternating-day operative debridement, broad-spectrum parenteral and topical antibacterial and antifungal therapy. Antimicrobial therapy included ceftazidime, metronidazole, trimethoprim-sulfamethoxazole, micafungin, amphotericin B, and posaconazole (FIG. 29), as well as VERAFLO vac instillation of antimicrobials into the wound bed. The patient's polymicrobial soft tissue infection continued to advance and was accompanied by multisystem organ failure and shock. Over a 4-week period, they required debridement of >3000 cm^2 of skin, subcutaneous tissue, and muscle involving the entire perineum, bilateral thighs, buttocks, and circumferential abdominal wall (FIG. 28B).
Tissue histology also became negative for fungus at approximately the same time as tissue cultures (FIG. 28E).

Saksenaea isolate = assay: CLSI broth dilution antifungal susceptibility testing; details: Saksenaea isolate from patient wound, CLSI broth dilution reference method
[2] = tested on: peripheral blood mononuclear cells (T cell IFN-γ production); assay type: cell-based, human
mucormycosis = details: nivolumab (anti-PD-1) and IFN-γ together, Belgian bomb blast victim, reference 5; cited from earlier work

In the case of C[C@@H]1[C@H](O)[C@@H](C)/C=C/C=C/C=C/C=C/C=C/C=C/C=C/[C@H](O[C@@H]2O[C@H](C)[C@@H](O)[C@H](N)[C@@H]2O)C[C@@H]2O[C@](O)(C[C@@H](O)C[C@@H](O)[C@H](O)CC[C@@H](O)C[C@@H](O)CC(=O)O[C@H]1C)C[C@H](O)[C@H]2C(=O)O [amphotericin B], the “wound cultures for Trichosporon asahii and Saksenaea species despite triple antifungal therapy” value (“wound cultures” below) [1] is reported as “persistently positive” and the Drug sensitivities (Saksenaea isolate) is reported as less than 0.03 µg/mL.

With C[C@@H]1C[C@H]2[C@@H]3CCC4=CC(=O)C=C[C@]4(C)[C@@]3(F)[C@@H](O)C[C@]2(C)[C@@]1(O)C(=O)COP(=O)(O)O [dexamethasone, dexamethasone phosphate] the “decrease in IFN-γ production (ELISpot total well intensity)” value [2] was 61% and 58% and the “reduction in the number of IFN-γ secreting cells” value [2] was 30% and 49%.

C[C@@H](c1nc(-c2ccc(C#N)cc2)cs1)[C@](O)(Cn1cncn1)c1cc(F)ccc1F [isavuconazole] gave a Drug sensitivities (Saksenaea isolate) of 1 µg/mL.

With CCCCCOc1ccc(-c2cc(-c3ccc(C(=O)N[C@H]4C[C@@H](O)[C@@H](O)NC(=O)[C@@H]5[C@@H](O)[C@@H](C)CN5C(=O)[C@H]([C@H](O)CC(N)=O)NC(=O)[C@H]([C@H](O)[C@@H](O)c5ccc(O)c(OS(=O)(=O)O)c5)NC(=O)[C@@H]5C[C@@H](O)CN5C(=O)[C@H]([C@@H](C)O)NC4=O)cc3)no2)cc1 [micafungin] (X1-[Orn(4R-OH,5R-OH)]T[Hyp][hTyr(3S-OH,4S-OH,3'-OSO3H)][Gln(3R-OH)][Pro(3S-OH,4S-Me)]; lactam 1-C) the “wound cultures” value [1] was “persistently positive”.

For CC[C@@H]([C@H](C)O)n1ncn(-c2ccc(N3CCN(c4ccc(OC[C@@H]5CO[C@@](Cn6cncn6)(c6ccc(F)cc6F)C5)cc4)CC3)cc2)c1=O [posaconazole], the “wound cultures” value [1] was “persistently positive” and the Drug sensitivities (Saksenaea isolate) was 0.25 µg/mL.

In the case of “IFN-γ: interferon-γ given as immune-adjuvant therapy”, the “outcome of immune-adjuvant therapy in refractory mucormycosis” value (mucormycosis) is given as “rapid clinical improvement, enhanced immune phenotypic markers, and fungal elimination”.

In the case of nivolumab [reference compound], the “outcome of immune-adjuvant therapy in refractory mucormycosis” value (mucormycosis) is listed as “rapid clinical improvement, enhanced immune phenotypic markers, and fungal elimination”.
